Experimental data taken from patent US20240018146A1, “COMPOSITIONS AND METHODS OF USING THE SAME FOR TREATMENT OF NEURODEGENERATIVE AND MITOCHONDRIAL DISEASE” (MITOKININ, INC., priority 2020, published 2024).

Columns and labels:
HeLa MKYP cells [1] = assay: Cell death measured by DAPI staining, with 1 μM FCCP/oligomycin or no toxin (no FO); assay type: cell-based
Method in brief: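 Cell death was read by DAPI staining after 6–6.5 h compound exposure in HeLa MKYP cells, either with 1 μM FCCP/oligomycin or without toxin. H2O2 served as the cell-death control.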

HeLa MKYP cells [2] = assay: Human mitophagy assay (HeLa mKeima assay, FACS); assay type: cell-based; conditions: Homo sapiens, HeLa; read-out: Mitophagy induction EC50
Method in brief: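 Mitophagy, read by FACS as the share of cells showing the lysosomal mtKeima emission shift, followed 6 h of 1 uM FCCP/oligomycin stimulation. Before that, HeLa MKYP cells spent 16 h with compound over a concentration range.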

SMILES	Highest safe dose (cytotoxicity; no FO; safe means DAPI+ <20%) (HeLa MKYP cells [1])	Max % death with 1 μM FO (HeLa MKYP cells [1])	EC50 (HeLa MKYP cells [2])
C[C@@H]1CN([C@H]2COc3ccccc3[C@@H]2Nc2ncnc3[nH]c(C(F)(F)F)cc23)CCO1 [EP-0040955]	25.0 µM	3.4%	> 25 µM
C[C@@H]1CN([C@H]2COc3ccccc3[C@@H]2Nc2ncnc3[nH]c(C4CC4)cc23)CCO1 [EP-0040957]	25.0 µM	3.8%	22.8 µM
C[C@H]1CN([C@H]2COc3ccccc3[C@@H]2Nc2ncnc3[nH]c(C(F)(F)F)cc23)CCO1 [EP-0040979]	25.0 µM	4.0%	> 25 µM
C[C@H]1CN([C@H]2COc3cc(F)ccc3[C@@H]2Nc2ncnc3[nH]c(C(F)(F)F)cc23)CCO1 [EP-0040981]	25.0 µM	7.0%	2.44 µM
C[C@H]1CN([C@@H]2COc3cc(F)ccc3[C@H]2Nc2ncnc3[nH]c(C(F)(F)F)cc23)CCO1 [EP-0040982]	25.0 µM	6.1%	7.62 µM
C[C@H]1CN([C@@H]2COc3ccccc3[C@H]2Nc2ncnc3[nH]c(C4CC4)cc23)CCO1 [EP-0041000]	25.0 µM	6.5%	1.32 µM
FC(F)(F)c1cc2c(N[C@@H]3c4ccccc4OC[C@H]3C3CCCOC3)ncnc2[nH]1 (stereo partly drawn) [EP-0041003]	25.0 µM	5.3%	> 25 µM
C[C@@H]1CN([C@H]2COc3cc(F)ccc3[C@@H]2Nc2ncnc3[nH]c(C(F)(F)F)cc23)CCO1 [EP-0041087]	25.0 µM	5.1%	9.38 µM
C[C@@H]1CN([C@@H]2COc3cc(F)ccc3[C@H]2Nc2ncnc3[nH]c(C4CC4)cc23)CCO1 [EP-0041123]	25.0 µM	7.3%	11 µM
C[C@H]1CN([C@H]2COc3cc(F)ccc3[C@@H]2Nc2ncnc3[nH]c(C4CC4)cc23)CCO1 [EP-0041124]	25.0 µM	12.7%	5.32 µM
OC(C1CCOCC1)[C@H]1COc2ccccc2[C@@H]1Nc1ncnc2[nH]c(C(F)(F)F)cc12 (stereo partly drawn) [EP-0041135]	25.0 µM	15.7%	1.53 µM
CO[C@@H]1CCN([C@@H]2COc3ccccc3[C@H]2Nc2ncnc3[nH]c(C(F)(F)F)cc23)C1 [EP-0041162]	25.0 µM	4.2%	> 25 µM
CO[C@H]1CCN([C@@H]2COc3ccccc3[C@H]2Nc2ncnc3[nH]c(C(F)(F)F)cc23)C1 [EP-0041173]	25.0 µM	6.1%	4.09 µM
COCC1CC([C@H]2COc3ccccc3[C@@H]2Nc2ncnc3[nH]c(C(F)(F)F)cc23)C1 (stereo partly drawn) [EP-0041260]	25.0 µM	10.2%	0.85 µM
N#CC1CN([C@H]2COc3ccccc3[C@@H]2Nc2ncnc3[nH]c(C(F)(F)F)cc23)C1 [EP-0041332]	25.0 µM	11.7%	1.54 µM
